Assays:
[1] = test system: NADPH oxidase; assay: NADPH oxidase activity in keratinocytes treated with peptide A variants; assay type: cell-based; conditions: 10 μM, 24 h post-treatment, normalized to scramble treated cells
Protocol: Keratinocytes were treated with 10 μM of the indicated peptides: scramble control peptide P1 (SEQ ID NO: 57), peptide A with tat sequence (SEQ ID NO: 41) or without the tat sequence (SEQ ID NO:20); shorter peptides P7 (SEQ ID NO: 2) and P8 (SEQ ID NO: 56) (FIG. 8A). The NADPH oxidase activity was measured 24 h post-treatment (RLU/μg of proteins) and was normalized to the scramble treated cells (FIG. 8B).

[2] = test system: XPC deficient mice; assay: Premature skin aging in XPC deficient mice (progerin, OXPHOS, proteomics); assay type: in vivo
Protocol: FIGS. 11A and 11B: show the effect of NOX1 inhibitor peptide A (InhNOX) on progerin expression in skin biopsies of young XPC^+/+ and XPC^−/− mice. One month old mice were treated topically with 3 mg/kg (6 mice per group) Nox1 inhibitor peptide A (InhNOX) or control peptide (vehicle) three times per week for three months. (A) Total protein extracts of skin biopsies were assessed for progerin by Western blot analysis. β-actin was used as a loading control. (B) The protein bands corresponding to progerin was quantified and normalized with β-actin. The average density±SD from six mice in each group is presented as the relative value to the density in young wild type mice.
FIGS. 12A and 12B: show the effects of Nox1 inhibitor peptide A (InhNOX) on protein expression of OXPHOS complexes in skin biopsies of young XPC^+/+ and XPC^−/− mice. One month old mice were treated topically with 3 mg/kg (6 mice per group) Nox1 inhibitor peptide A (InhNOX) or control peptide (vehicle) three times per week for three months. (A) Expression of OXPHOS complexes were assessed by western blot analysis. β-actin was used as a loading control. (B) The bands corresponding to different OXPHOS complexes were quantified and normalized with β-actin. The average density±SD from six mice in each group is presented as the relative value to the density in young wild type mice.
To assess the anti-aging effects of Nox1 inhibitor peptide A (SEQ ID NO: 41) the accelerated aging in XPC deficient mice was first evaluated. To this end, the expression of progerin, a truncated version of lamin A protein involved in progeria syndrome, has been evaluated in 4 months old (young) and 1.5 year old (old) proficient and deficient XPC mice (XPC^+/+ and XPC^−/−, respectively) (FIGS. 9A and 9B).
To investigate the role of NADPH oxidase activity on premature aging in XPC deficient mice, one month old XPC^+/+ and XPC^−/− mice have been treated with NOX1 inhibitor peptide or vehicle three times per week for three months. The progerin expression (FIG. 11), OXPHOS protein expression (FIG. 12) and metabolism profile in murine epidermal cells have been then evaluated. […] To have a general idea on the effects of NOX1 peptide inhibitor on the XPC knockdown-induced metabolism alteration, proteomic approach has been used.

[3] = test system: UVB-induced squamous cell carcinomas (SCC); assay: UVB-induced squamous cell carcinoma induction (photocarcinogenesis); assay type: in vivo, SKH-1 hairless mice; conditions: for tumors with a volume less than 5 mm^3: 3 mg/kg topical, week 29
Protocol: FIGS. 6A, 6B and 6C: show the photoprotective effects of peptide A on UVB-induced squamous cell carcinomas (SCC) induction using SKH-1 hairless mice. Mice were treated topically with 3 mg/kg of peptide A or control peptide, and irradiated with UVB 10 min later three times per week. The number (6A) and the size (6B) of tumors were assessed once a week during 29 weeks (6C). The tumor volume distribution was evaluated at week 29. Clearly there is a considerable reduction in numbers and size of UVB-induced tumors in SKH-1 mice administrated topically with peptide A.
To examine the photoprotective effects of peptide A, the effect of peptide A administration on UVB-induced squamous cell carcinomas (SCC) induction using SKH-1 hairless mice, a well-defined murine model for the study of photocarcinogenesis that develops skin tumors including benign papilloma and malignant SCC. The validity of this model is exemplified by the remarkable similarity between UVB-induced carcinogenesis in these mice and the UV carcinogenesis pathway in human skin. SKH-1 hairless mice have yield extremely valuable data on the dose, time-course and the action spectrum for skin tumorigenesis following chronic UV B irradiation. In this study, peptide A (3 mg/kg) was administrated three times per week and 10 minutes prior to each UV B exposure.

[4] = test system: human colon adenocarcinoma HT29 cell line; assay: ROS level in HT29 cells, in which Nox1 is the only active Nox; assay type: cell-based; conditions: 24 h post-treatment
Protocol: (§1) FIGS. 2A and 2B: show the relative ROS level as measured in primary human keratinocytes and HT29 (human colon adenocarcinoma cell line) treated with 10 or 50 μM of peptide inhibitor for 24 h using the CM-H2DCF-DA probes. Cells were treated with 10 μM of the peptides A (SEQ ID NO: 41), B (SEQ ID NO: 42), and C (SEQ ID NO: 43), and the ROS level was measured 24 h post-treatment. ROS level was normalized to non-treated cells (NTC) (*P<0.05).
(§2) ROS level in primary human keratinocytes treated with 10 or 50 μM of peptides A, B, and C for 24 h were assayed using the CM-H2DCF-DA probes (FIG. 2A).

[5] = test system: primary human keratinocytes; assay: ROS level with CM-H2DCF-DA probes in keratinocytes; assay type: cell-based; conditions: 10 or 50 μM, 24 h
Protocol: as §1, §2

[6] = test system: NADPH oxidase; assay: NADPH oxidase activity in shCtrl and shNox1-transduced keratinocytes; assay type: cell-based, human; conditions: peptide A-treated cells versus shNox1-transduced cells and shNox1-transduced cells treated with peptide A
Protocol: (§3) FIGS. 3A, 3B and 3C: show inhibition of endogenous Nox1 and Nox2 protein expression using lentivirus-mediated expression of shRNA against Nox1 and Nox2. Keratinocytes were transduced with different shRNA (shNox1, shNox2 and the control shCtrl). Transduction efficacy was checked by western blotting analysis. […] Transduction efficacy was checked by western blotting analysis. Relative ROS level (3B) and Nox activity (3C) were measured 24 h post-treatment with Nox1 inhibitor peptide A compared to control peptide C. ROS level was normalized to counterpart peptide C-treated cells. NADPH oxidase activity was measured by relative luminescence unit (RLU) per μg of proteins. *P<0.05. […] In FIG. 3C NADPH oxidase activity was measured in shCtrl and shNox1-transduced cells treated with or without Nox1 inhibitor peptide A.
(§4) To examine the specificity of these peptides, the expression of endogenous Nox1 and Nox2 protein was inhibited using lentivirus-mediated expression of shRNA against Nox1 and Nox2. […] Further, NADPH oxidase activity was measured in shCtrl and shNox1-transduced cells treated with or without peptide A (FIG. 3C).

[7] = test system: UVB-induced Nox activation; assay: UVB-induced Nox activation in skin of irradiated mice; assay type: in vivo, SKH-1 mice; conditions: topical 3 and 12 mg/kg, 10 min prior to irradiation (UVB 150 mJ/cm^2)
Protocol: (§5) FIGS. 5A and 5B: show effect of peptide A on Nox1 activity in mouse skin. SKH-1 mice were treated topically with different doses: 0.4, 3 and 12 mg/kg (3 mice per dose) of Nox1 inhibitor peptide A. Skin biopsies were harvested 2 h, 24 h, 48 h and 72 h post-treatment and the NADPH oxidase activity was measured (RLU/μg of proteins). Results was normalized to the non-treated (NT) mice and expressed as % of inhibition of Nox activity. (B) Mice were treated topically with 3 and 12 mg/kg of peptide A (2 mice per dose). 10 min after treatment, mice were exposed to UVB (150 mJ/cm^2). Skin biopsies were harvested 2 h, 24 h. At 46 h after first treatment, mice were treated again with the same concentration of peptide A and exposed to UVB 10 min later. Skin biopsies were then harvested at 2 h, 24 h (i.e. 48 and 72 h after first treatment, respectively). The NADPH oxidase activity was measured (RLU/μg of proteins) and was normalized to the non-treated (NT) and non-irradiated mice.
(§6) To examine the effect of peptide A on Nox1 activity in mouse skin, SKH-1 mice were treated topically with different doses of peptide A (FIG. 5A). […] The effect of peptide A on UVB irradiated mice was then tested (FIG. 5B).

[8] = target: T1, Nox1 (Homo sapiens, UniProt Q86UR1); assay: ROS level in shCtrl, shNox1 or shNox2-transduced keratinocytes; assay type: cell-based; conditions: shNox1-transduced keratinocytes, 24 h post-treatment, compared to control peptide C
T1 construct: endogenous in cells; host or cells: keratinocytes transduced with lentiviral shCtrl, shNox1 or shNox2
T1 sequence (Q86UR1 1-476): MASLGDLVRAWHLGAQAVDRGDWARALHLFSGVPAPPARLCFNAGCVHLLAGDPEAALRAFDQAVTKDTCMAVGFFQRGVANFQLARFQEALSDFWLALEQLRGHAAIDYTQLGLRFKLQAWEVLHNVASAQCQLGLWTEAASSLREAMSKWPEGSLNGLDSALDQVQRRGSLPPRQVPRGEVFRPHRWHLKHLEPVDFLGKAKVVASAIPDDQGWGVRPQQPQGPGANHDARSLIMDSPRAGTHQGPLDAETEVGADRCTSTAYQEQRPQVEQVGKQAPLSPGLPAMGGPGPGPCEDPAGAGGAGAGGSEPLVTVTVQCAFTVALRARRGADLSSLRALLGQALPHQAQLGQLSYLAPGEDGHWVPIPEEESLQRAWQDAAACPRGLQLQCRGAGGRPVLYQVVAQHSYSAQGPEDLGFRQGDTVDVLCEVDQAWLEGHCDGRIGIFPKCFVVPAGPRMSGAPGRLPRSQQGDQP
Protocol: as §3, §4

[9] = test system: NADPH oxidase; assay: NADPH oxidase activity in non-tumor bearing skin and UVB-induced tumors after 29 weeks; assay type: in vivo, SKH-1 mice; conditions: compared with vehicle treated mice, after 29 weeks of treatment
Protocol: Mice were sacrificed after 29 weeks of treatment. Non-tumor bearing skin and tumors were harvested from irradiated mice treated with peptide A or the vehicle. NADPH oxidase activity was measured as RLU/μg of proteins in non-tumor bearing skin and UVB-induced tumors. Relative inhibition of Nox activity in non-tumor bearing skin and tumors was evaluated following arbitrary setting the Nox activity in non-tumor bearing skin and tumors taken from vehicle treated-mice to 100%. Results were then expressed as the average percentage of vehicle-treated mice.
The activity of NADPH oxidase was reduced 70% in non-tumor bearing skin and 54% in tumors isolated from mice treated with peptide A compared with vehicle treated mice (FIG. 7).

[10] = target: T2, Nox1 activity in mouse skin (Mus musculus, UniProt Q8CJ00); assay: NADPH oxidase activity in mouse skin after topical treatment; assay type: in vivo, SKH-1 mice; conditions: 3 and 12 mg/kg
T2 construct: from tissue; host or cells: skin biopsies of SKH-1 mice
T2 sequence (Q8CJ00 1-444): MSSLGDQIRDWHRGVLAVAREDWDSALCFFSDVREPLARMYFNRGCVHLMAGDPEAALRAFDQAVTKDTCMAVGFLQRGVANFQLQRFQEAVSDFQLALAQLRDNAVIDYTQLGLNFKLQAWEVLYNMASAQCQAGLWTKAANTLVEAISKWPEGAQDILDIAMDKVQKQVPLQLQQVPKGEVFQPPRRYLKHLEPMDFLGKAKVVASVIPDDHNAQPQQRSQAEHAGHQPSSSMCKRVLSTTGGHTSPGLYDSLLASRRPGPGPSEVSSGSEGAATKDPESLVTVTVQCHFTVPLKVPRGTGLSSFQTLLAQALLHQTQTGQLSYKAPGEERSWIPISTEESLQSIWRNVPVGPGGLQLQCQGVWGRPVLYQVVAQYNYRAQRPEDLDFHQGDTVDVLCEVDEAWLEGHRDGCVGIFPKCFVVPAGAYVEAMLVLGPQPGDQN
Protocol: as §5, §6

[11] = XPC^−/− mice, 3 mg/kg topical three times per week for three months
[12] = 3 mg/kg topical three times per week, 10 minutes prior to each UVB exposure, 29 weeks

Substance: P8: shorter peptide derived from peptide A, sequence not printed (PPTVPTRP; … PEPTIDIC FRAGMENT)
- inhibition of NADPH oxidase activity [1]: efficiently inhibit

Substance: PPTVPTR (HOMO SAPIENS) [P7, shorter peptide derived from peptide A]
- XPC deficiency-induced premature aging ([2]; XPC deficient mice): blocked
- all experiments of Example 8 repeated, compared with peptide A ([2]; XPC deficient mice): the same results have been obtained
- inhibition of NADPH oxidase activity [1]: efficiently inhibit

Substance: PPTVPTRPS (HOMO SAPIENS) [peptide A without tat]
- inhibition of NADPH oxidase activity [1]: as efficiently as peptide A

Substance: tat-C-L-R-I-T-R-Q-S-R [peptide C, reference compound]
- tumors with a volume less than 5 mm^3 [3]: 8%

Substance: tat-I-Q-S-R-C-C-T-V-T (RKKRRQRRRIQSRCCTVT; FUSION PEPTIDE) [peptide B, target SH3-NoxA1]
- ROS level [4]: significant reduction
- ROS level [5]: significant decrease

Substance: tat-P-P-T-V-P-T-R-P-S (RKKRRQRRRPPTVPTRPS; FUSION PEPTIDE) [peptide A, target SH3-NoxA1]
- NADPH oxidase activity [6]: Equally decreased
- ROS level [4]: significant reduction
- UVB-induced Nox activation [7]: efficiently blocked
- XPC deficiency-induced premature aging ([2]; XPC deficient mice): blocked
- XPC deficiency-induced metabolic alteration (proteomic approach) ([2]; XPC deficient mice, three times per week for three months): eliminated the effects
- expression of OXPHOS complexes I, II and III [2, 11]: abrogated the decrease
- protein expression of progerin in skin [2, 11]: blocked the increase
- steady-state levels of ROS in shNox1-transduced cells [8]: no effect
- ROS level [5]: significant decrease
- reduction of NADPH oxidase activity in non-tumor bearing skin [9]: 70%
- reduction of NADPH oxidase activity in tumors [9]: 54%
- duration of efficient inhibition of Nox activity in skin [10]: up to 3 days
- decrease in tumor number [3, 12]: 2.3 times
- decrease in tumor size [3, 12]: 2.9 times
- tumors with a volume less than 5 mm^3 [3]: 57%

— US10517919B2, “Selective Nox-1 inhibitor peptides and uses thereof” (UNIVERSITE DE BORDEAUX, priority 2013, dated 2019)
